Experimental data taken from ChEMBL document CHEMBL3351378, “Phenyl acetate derivatives, fluorine-substituted on the phenyl group, as rapid recovery hypnotic agents with reflex depression” (Eur J Med Chem, 2015).
Calls of active or inactive are those of the source. The calls are words filed in the database; no cut-off is given here.

How the values were obtained:
Rattus norvegicus [1] = test: Induction of hypnotic activity in iv dosed Sprague-Dawley rat assessed as reflex depression 120 secs following injection; format: functional, organism-based
Rattus norvegicus [2] = test: Induction of hypnotic activity in iv dosed Sprague-Dawley rat assessed as reflex depression 10 secs following injection; format: functional, organism-based
[3] = biological target: Glutamate NMDA receptor (Rattus norvegicus) (UniProt P35439+Q00959+Q00960+Q00961+Q62645+Q8VHN2+Q9R1M7); test: Displacement of [3H]MK801 from NMDA receptor in Sprague-Dawley rat cerebral cortex membrane at 50 umol by liquid scintillation counting; format: tissue-based
Rattus norvegicus [4] = test: Induction of hypnotic activity in iv dosed Sprague-Dawley rat assessed as reflex depression 180 secs following injection; format: functional, organism-based
Rattus norvegicus [5] = test: Induction of hypnotic activity in iv dosed Sprague-Dawley rat assessed as time duration of loss of righting reflex; format: functional
Rattus norvegicus [6] = test: Induction of hypnotic activity in iv dosed Sprague-Dawley rat assessed as reflex depression 30 secs following injection; format: functional, organism-based
Rattus norvegicus [7] = test: Induction of hypnotic activity in Sprague-Dawley rat assessed as recovery time to walking at 5.6 mg/kg/min after 20 mins to 3 hrs; format: functional, organism-based
[8] = Toxicity in Sprague-Dawley rat assessed as motor coordination by rotarod test; format: organism-based; conditions: in vivo
[9] = Therapeutic index, ratio of […] for Sprague-Dawley rat by rotarod test to HD50 for hypnotic activity in iv dosed Sprague-Dawley rat; format: organism-based; conditions: in vivo, read-out: TI
Rattus norvegicus [10] = test: Induction of hypnotic activity in iv dosed Sprague-Dawley rat assessed as reflex depression 20 secs following injection; format: functional, organism-based
Rattus norvegicus [11] = test: Induction of hypnotic activity in iv dosed Sprague-Dawley rat assessed as loss of righting reflex; format: functional
Rattus norvegicus [12] = test: Induction of hypnotic activity in iv dosed Sprague-Dawley rat assessed as reflex depression 60 secs following injection; format: functional, organism-based

CCOC(=O)Cc1cc(OCC)c(OCC(=O)N(CC)CC)cc1F
Activity (Rattus norvegicus [1]): Active
Activity (Rattus norvegicus [2]): inactive
Activity [3]: 56.6%
Activity (Rattus norvegicus [4]): Active
Time (Rattus norvegicus [5]): 209.6 s
Activity (Rattus norvegicus [6]): Active
Activity (Rattus norvegicus [7]): inactive
TD50 [8]: 74.5 mg/kg
selectivity ratio [9]: 14.4
Activity (Rattus norvegicus [10]): Active
HD50 (Rattus norvegicus [11]): 5.6 mg/kg
Activity (Rattus norvegicus [12]): Active

CCOC(=O)Cc1ccc(OCC(=O)N(CC)CC)c(OCC)c1F
Activity [3]: inactive
Time (Rattus norvegicus [5]): 77.7 s
TD50 [8]: 200 mg/kg
selectivity ratio [9]: 10.1
HD50 (Rattus norvegicus [11]): 19.8 mg/kg

CCCOC(=O)Cc1ccc(OCC(=O)N(CC)CC)c(OC)c1F
Activity [3]: inactive
Time (Rattus norvegicus [5]): 76.6 s
TD50 [8]: 169 mg/kg
selectivity ratio [9]: 8.7
HD50 (Rattus norvegicus [11]): 19.4 mg/kg

CCN(CC)C(=O)COc1cc(F)c(CC(=O)OC(C)C(F)(F)F)cc1OC (stereo not given)
Activity [3]: inactive
Time (Rattus norvegicus [5]): 88.9 s
TD50 [8]: 151 mg/kg
selectivity ratio [9]: 9.7
HD50 (Rattus norvegicus [11]): 15.6 mg/kg

CCOc1cc(CC(=O)OC(C)C)cc(F)c1OCC(=O)N(CC)CC
Activity [3]: inactive
Time (Rattus norvegicus [5]): 92.7 s
TD50 [8]: 256 mg/kg
selectivity ratio [9]: 13.1
HD50 (Rattus norvegicus [11]): 19.5 mg/kg

CCOC(=O)Cc1cc(F)c(OCC(=O)N(CC)CC)c(OC)c1
Activity [3]: inactive
Time (Rattus norvegicus [5]): 72 s
TD50 [8]: 239 mg/kg
selectivity ratio [9]: 13.9
HD50 (Rattus norvegicus [11]): 17.2 mg/kg

CCCOC(=O)Cc1cc(F)c(OCC(=O)N(CC)CC)c(OC)c1
Activity [3]: inactive
Time (Rattus norvegicus [5]): 68.9 s
TD50 [8]: 188 mg/kg
selectivity ratio [9]: 11.2
HD50 (Rattus norvegicus [11]): 16.8 mg/kg

CCCOC(=O)Cc1cc(OCC)c(OCC(=O)N(CC)CC)cc1F
Activity [3]: inactive
Time (Rattus norvegicus [5]): 215.3 s
TD50 [8]: 70.5 mg/kg
selectivity ratio [9]: 13.3
HD50 (Rattus norvegicus [11]): 5.3 mg/kg

CCOc1c(OCC(=O)N(CC)CC)ccc(CC(=O)OC(C)C(F)(F)F)c1F (stereo not given)
Activity [3]: inactive
Time (Rattus norvegicus [5]): 89.8 s
TD50 [8]: 182 mg/kg
selectivity ratio [9]: 7.4
HD50 (Rattus norvegicus [11]): 24.6 mg/kg

CCOc1cc(CC(=O)OC(C)C)c(F)cc1OCC(=O)N(CC)CC
Activity [3]: inactive
Time (Rattus norvegicus [5]): 226.2 s
TD50 [8]: 60.9 mg/kg
selectivity ratio [9]: 12.7
HD50 (Rattus norvegicus [11]): 4.8 mg/kg

CC(C)c1cccc(C(C)C)c1O [PROPOFOL]
Time (Rattus norvegicus [5]): 349.3 s
TD50 [8]: 30.7 mg/kg
selectivity ratio [9]: 5.9
HD50 (Rattus norvegicus [11]): 5.3 mg/kg

CCN(CC)C(=O)COc1c(F)cc(CC(=O)OCC(F)(F)F)cc1OC
Activity [3]: inactive
Time (Rattus norvegicus [5]): 71.1 s
TD50 [8]: 165 mg/kg
selectivity ratio [9]: 9.8
HD50 (Rattus norvegicus [11]): 16.9 mg/kg

CCOC(=O)Cc1cc(OC)c(OCC(=O)N(CC)CC)cc1F
Activity [3]: inactive
Time (Rattus norvegicus [5]): 82.2 s
TD50 [8]: 113 mg/kg
selectivity ratio [9]: 11.3
HD50 (Rattus norvegicus [11]): 10 mg/kg

CCOc1cc(CC(=O)OC(C)C(F)(F)F)cc(F)c1OCC(=O)N(CC)CC (stereo not given)
Activity [3]: inactive
Time (Rattus norvegicus [5]): 88.8 s
TD50 [8]: 181 mg/kg
selectivity ratio [9]: 9.9
HD50 (Rattus norvegicus [11]): 18.3 mg/kg

CCN(CC)C(=O)COc1cc(F)c(CC(=O)OCC(F)(F)F)cc1OC
Activity [3]: inactive
Time (Rattus norvegicus [5]): 75.4 s
TD50 [8]: 171 mg/kg
selectivity ratio [9]: 9.3
HD50 (Rattus norvegicus [11]): 18.4 mg/kg

CCOC(=O)Cc1cc(F)c(OCC(=O)N(CC)CC)c(OCC)c1
Activity [3]: inactive
Time (Rattus norvegicus [5]): 66.5 s
TD50 [8]: 224 mg/kg
selectivity ratio [9]: 12.1
HD50 (Rattus norvegicus [11]): 18.5 mg/kg

CCCOC(=O)Cc1cc(F)c(OCC(=O)N(CC)CC)c(OCC)c1
Activity [3]: inactive
Time (Rattus norvegicus [5]): 76.6 s
TD50 [8]: 175 mg/kg
selectivity ratio [9]: 11.8
HD50 (Rattus norvegicus [11]): 14.8 mg/kg

CCN(CC)C(=O)COc1ccc(CC(=O)OC(C)C)c(F)c1OC
Activity [3]: inactive
Time (Rattus norvegicus [5]): 91.4 s
TD50 [8]: 141 mg/kg
selectivity ratio [9]: 7.9
HD50 (Rattus norvegicus [11]): 17.9 mg/kg

CCCOc1cc(CC(=O)OC(C)C)c(F)cc1OCC(=O)N(CC)CC
Activity [3]: inactive
Time (Rattus norvegicus [5]): 133.9 s
TD50 [8]: 102 mg/kg
selectivity ratio [9]: 9.6
HD50 (Rattus norvegicus [11]): 10.6 mg/kg

CCN(CC)C(=O)COc1cc(F)c(CC(=O)OC(C)C)cc1OC
Activity [3]: inactive
Time (Rattus norvegicus [5]): 86.6 s
TD50 [8]: 155 mg/kg
selectivity ratio [9]: 13.5
HD50 (Rattus norvegicus [11]): 11.5 mg/kg

CCN(CC)C(=O)COc1c(F)cc(CC(=O)OC(C)C)cc1OC
Activity [3]: inactive
Time (Rattus norvegicus [5]): 79.5 s
TD50 [8]: 176 mg/kg
selectivity ratio [9]: 12.4
HD50 (Rattus norvegicus [11]): 14.2 mg/kg

CCN(CC)C(=O)COc1c(F)cc(CC(=O)OC(C)C(F)(F)F)cc1OC (stereo not given)
Activity [3]: inactive
Time (Rattus norvegicus [5]): 84.2 s
TD50 [8]: 148 mg/kg
selectivity ratio [9]: 9.6
HD50 (Rattus norvegicus [11]): 15.4 mg/kg

CCOc1cc(CC(=O)OC(C)CC)c(F)cc1OCC(=O)N(CC)CC (stereo not given)
Activity [3]: inactive
Time (Rattus norvegicus [5]): 145.3 s
TD50 [8]: 90.7 mg/kg
selectivity ratio [9]: 10.8
HD50 (Rattus norvegicus [11]): 8.4 mg/kg

CCCOC(=O)Cc1ccc(OCC(=O)N(CC)CC)c(OCC)c1F
Activity [3]: inactive
Time (Rattus norvegicus [5]): 81.4 s
TD50 [8]: 173 mg/kg
selectivity ratio [9]: 10.4
HD50 (Rattus norvegicus [11]): 16.6 mg/kg

CCOc1c(OCC(=O)N(CC)CC)ccc(CC(=O)OC(C)C)c1F
Activity [3]: inactive
Time (Rattus norvegicus [5]): 102.9 s
TD50 [8]: 165 mg/kg
selectivity ratio [9]: 9.2
HD50 (Rattus norvegicus [11]): 17.9 mg/kg

CCOc1cc(CC(=O)OCC(F)(F)F)cc(F)c1OCC(=O)N(CC)CC
Activity [3]: inactive
Time (Rattus norvegicus [5]): 76.6 s
TD50 [8]: 127 mg/kg
selectivity ratio [9]: 8.7
HD50 (Rattus norvegicus [11]): 14.6 mg/kg

CCOc1c(OCC(=O)N(CC)CC)ccc(CC(=O)OCC(F)(F)F)c1F
Activity [3]: inactive
Time (Rattus norvegicus [5]): 83.3 s
TD50 [8]: 162 mg/kg
selectivity ratio [9]: 7.7
HD50 (Rattus norvegicus [11]): 21.1 mg/kg

CCCOC(=O)Cc1ccc(OCC(=O)N(CC)CC)c(OCC)c1 [AZD-3043]
Activity (Rattus norvegicus [2]): Active
Activity [3]: inactive
Time (Rattus norvegicus [5]): 74.2 s
TD50 [8]: 82.8 mg/kg
selectivity ratio [9]: 10.1
Activity (Rattus norvegicus [10]): Active
HD50 (Rattus norvegicus [11]): 7.9 mg/kg

CCN(CC)C(=O)COc1ccc(CC(=O)OC(C)C(F)(F)F)c(F)c1OC (stereo not given)
Activity [3]: inactive
Time (Rattus norvegicus [5]): 92.6 s
TD50 [8]: 158 mg/kg
selectivity ratio [9]: 7.4
HD50 (Rattus norvegicus [11]): 21.4 mg/kg

CCOc1cc(CC(=O)OCC(F)(F)F)c(F)cc1OCC(=O)N(CC)CC
Activity [3]: inactive
Time (Rattus norvegicus [5]): 186.1 s
TD50 [8]: 113 mg/kg
selectivity ratio [9]: 11.5
HD50 (Rattus norvegicus [11]): 9.8 mg/kg

CCCOC(=O)Cc1cc(OC)c(OCC(=O)N(CC)CC)cc1F
Activity [3]: inactive
Time (Rattus norvegicus [5]): 79.3 s
TD50 [8]: 199 mg/kg
selectivity ratio [9]: 12.6
HD50 (Rattus norvegicus [11]): 15.8 mg/kg

CCOc1cc(CC(=O)OC(C)C(F)(F)F)c(F)cc1OCC(=O)N(CC)CC (stereo not given)
Activity [3]: inactive
Time (Rattus norvegicus [5]): 238.3 s
TD50 [8]: 124 mg/kg
selectivity ratio [9]: 10.7
HD50 (Rattus norvegicus [11]): 11.6 mg/kg

CCOC(=O)Cc1ccc(OCC(=O)N(CC)CC)c(OC)c1F
Activity [3]: inactive
Time (Rattus norvegicus [5]): 89.8 s
TD50 [8]: 201 mg/kg
selectivity ratio [9]: 9.3
HD50 (Rattus norvegicus [11]): 21.6 mg/kg

CCCCOC(=O)Cc1cc(OCC)c(OCC(=O)N(CC)CC)cc1F
Activity [3]: inactive
Time (Rattus norvegicus [5]): 158.3 s
TD50 [8]: 109 mg/kg
selectivity ratio [9]: 11.2
HD50 (Rattus norvegicus [11]): 9.7 mg/kg

CCCOC(=O)Cc1ccc(OCC(=O)N(CC)CC)c(OC)c1 [PROPANIDID]
Activity (Rattus norvegicus [2]): Active
Activity [3]: inactive
Time (Rattus norvegicus [5]): 93.3 s
TD50 [8]: 80.6 mg/kg
selectivity ratio [9]: 9.6
Activity (Rattus norvegicus [10]): Active
HD50 (Rattus norvegicus [11]): 8.5 mg/kg

CCN(CC)C(=O)COc1ccc(CC(=O)OCC(F)(F)F)c(F)c1OC
Activity [3]: inactive
Time (Rattus norvegicus [5]): 88.7 s
TD50 [8]: 185 mg/kg
selectivity ratio [9]: 8.1
HD50 (Rattus norvegicus [11]): 22.8 mg/kg
